Reference: patent US20240360175A1, “PEPTIDE DERIVATIVES AND RELATED USES AS OREXIN AGONISTS” (Centessa Pharmaceuticals (UK) Limited, priority 2021, published 2024)
Read-outs that look alike come from different tables or passages of the source. Numbered stars: 1 amine (or outer) side, 2 acyl side, 3 side chain; on linkers, the order of the positions; unused ones are H or OH. Square brackets hold non-standard residues; d marks the D form. Peptide text beside a SMILES is read from it. * marks the point of attachment. X8 = CCCCCC[C@H](NC(=O)[C@@H](NC[C@H](CC(C)C)N*)[C@@H](C)O)C(N)=O; Malonyl(2,2-Me2,histaminyl) = CC(C)(C(=O)NCCc1cnc[nH]1)C(=O)*; hArg(Et2) = CCN=C(NCC)NCCCC[C@H](N)C(=O)O; PEG8 = NCCOCCOCCOCCOCCOCCOCCOCCOCCC(=O)O; Phe(3-Br) = N[C@@H](Cc1cccc(Br)c1)C(=O)O; X1 = O=C(CN(CCc1ccc2ccccc2c1)[*:1])[*:2]; X2 = O=C([C@@H](N[*:1])c1cccc(O)c1)[*:2]; X4 = CN(C)CCOCCOCCOCCOCCOCCOCCC(=O)*; Gly(NCH2CH2Ph) = O=C(O)CNCCc1ccccc1; PEG6 = NCCOCCOCCOCCOCCOCCOCCC(=O)O; Hyp = O=C(O)[C@@H]1C[C@@H](O)CN1; Hpg = N[C@H](C(=O)O)c1ccc(O)cc1; NMeN = CN[C@@H](CC(N)=O)C(=O)O; Aoc(2) = CCCCCC[C@H](N)C(=O)O; NMeL = CN[C@@H](CC(C)C)C(=O)O; Ahp(2) = CCCCC[C@H](N)C(=O)O; PEG4 = NCCOCCOCCOCCOCCC(=O)O; Phg = N[C@H](C(=O)O)c1ccccc1; Nle = CCCC[C@H](N)C(=O)O

Columns and labels:
[1] = molecular target: T1, human orexin type 2 receptor (hOX2R) (Homo sapiens, UniProt O43614); assay: Measurement of orexin type 2 receptor agonist activity (FLIPR TETRA intracellular Ca2+ fluorescence); format: cell-based
T1 construct: expressed in transfected cells
T1 sequence (O43614 1-444): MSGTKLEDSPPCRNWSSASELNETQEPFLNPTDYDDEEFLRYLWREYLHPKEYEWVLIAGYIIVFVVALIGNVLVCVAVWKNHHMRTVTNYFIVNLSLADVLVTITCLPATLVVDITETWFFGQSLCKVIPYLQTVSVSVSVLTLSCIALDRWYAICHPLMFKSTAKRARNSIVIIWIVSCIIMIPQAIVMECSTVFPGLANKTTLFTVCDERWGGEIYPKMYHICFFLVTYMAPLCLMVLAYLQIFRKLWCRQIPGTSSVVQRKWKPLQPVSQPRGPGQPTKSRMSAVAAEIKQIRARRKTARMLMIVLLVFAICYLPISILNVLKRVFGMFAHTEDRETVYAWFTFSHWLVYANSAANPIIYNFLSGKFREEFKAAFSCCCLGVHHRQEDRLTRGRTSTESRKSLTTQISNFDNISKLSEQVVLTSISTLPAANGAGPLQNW
Protocol: (§1) Stable cell line generation. Obtainment of cells stably expressing either human orexin type 2 or human orexin type 1 receptor: to obtain a stable cell line the Orexin receptor cDNA was inserted into pcDNA3.1(+) plasmid vector and clones identified by G418 drug resistance selection. […] A single clone for OX2R—CHO and OX1R—CHO were grown in bulk and frozen to generate a cell bank for routine screening.
(§2) Measurement of orexin type 2 receptor agonist activity. Chinese hamster ovary (CHO) cells expressing human orexin type 2 receptor (hOX2R) seeded in each well of 384 well black clear bottom plates (BD Flacon) at 10,000 cells per well and cultured for 24 h in an Ham's F12 (Gibco) medium containing 10% fetal calf serum (Sigma Aldrich) under the conditions of 37° C., 5% CO2. After removal of the medium, 50 μL of assay buffer 1 (0.1% bovine serum albumin (Sigma Aldrich), 20 mM HEPES (Molecular Dimensions), […] probenecid (Sigma Aldrich), 1× Calcium 5 dye (Molecular Devices) in Hank's balanced salt solution (Invitrogen)) was added, and the cells were incubated for 60 min under the conditions of 37° C., 5% CO2. A test peptide was dissolved in dimethyl sulfoxide (Sigma Aldrich) to 1 mM, and then diluted with assay buffer 2 (20 mM HEPES, Hank's balanced salt solution, 0.1% bovine serum albumin). For the reaction, a test peptide solution (10 μl) was added using Fluorescent Imaging Plate Reader TETRA (FLIPR TETRA: manufactured by Molecular Devices), a fluorescence value (excitation wavelength 488 nm, measurement wavelength 570 nm) of each well was measured every one second for 2 min, and the agonist activity was determined using the area of the fluorescence value as an indicator of intracellular Ca^2+ concentration. The agonist activity of the test peptide was calculated assuming that the fluorescence value of the well added with only the dilution buffer was 0% and the fluorescence value of the well added with 10 nM human orexin A (Tocris) buffer was 100%. As used herein, Emax indicates the value at 1 μM concentration when orexin A is converted to a full agonist (maximum value of agonist activity: 100%).

[2] = molecular target: T2, human orexin type 1 receptor (hOX1R) (Homo sapiens, UniProt O43613); assay: Measurement of orexin type 1 receptor agonist activity (FLIPR TETRA intracellular Ca2+ fluorescence); format: cell-based
T2 construct: expressed in transfected cells
T2 sequence (O43613 1-425): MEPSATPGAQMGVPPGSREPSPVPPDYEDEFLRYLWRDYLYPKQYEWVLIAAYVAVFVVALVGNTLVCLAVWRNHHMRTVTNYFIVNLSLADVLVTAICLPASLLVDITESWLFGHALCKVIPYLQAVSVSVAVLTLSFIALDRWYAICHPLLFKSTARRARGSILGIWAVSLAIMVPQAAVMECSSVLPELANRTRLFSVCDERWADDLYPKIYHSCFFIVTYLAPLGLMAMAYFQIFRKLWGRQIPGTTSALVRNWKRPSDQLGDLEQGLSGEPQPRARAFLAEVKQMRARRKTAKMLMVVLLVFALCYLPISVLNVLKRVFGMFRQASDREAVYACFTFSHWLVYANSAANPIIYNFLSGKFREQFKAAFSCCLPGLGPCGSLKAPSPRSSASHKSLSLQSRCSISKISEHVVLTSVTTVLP
Protocol: as §1
as §2, with “type 1” for “type 2”, “receptor (hOX1R) were” for “receptor (hOX2R)”

[3] = CHO cells expressing hOX2R, agonist activity, Ca2+ fluorescence, read-out: hOX2 pEC50 (converted)
[4] = CHO cells expressing hOX1R, agonist activity, Ca2+ fluorescence, read-out: hOX1 pEC50 (converted)

Row | Compound | EC50 [1, 3] | EC50 [2, 4] | EC50 [1] | EC50 [2]
1 | CCCCCC[C@H](NC(=O)[C@@H](NC(=O)[C@H](CC(C)C)NC(=O)[C@@H](NC(=O)CNC(=O)[C@@H](NC(=O)[C@H](C)NC(=O)[C@@H]1C[C@@H](O)CN1C(=O)[C@H](CC(N)=O)NC(=O)CN(CCc1ccccc1)C(=O)[C@H](CCCNC(=N)N)NC(=O)CCOCCOCCOCCOCCOCCOCCN)c1ccccc1)[C@@H](C)CC)[C@@H](C)O)C(N)=O [Peptide 3] (H-[PEG6]R[Gly(NCH2CH2Ph)]N[Hyp]A[Phg]GILT[Aoc(2)]-NH2) | < 0.1 nM | > 10 nM |  | 
2 | CC[C@H](C)[C@H](NC(=O)CNC(=O)[C@@H](NC(=O)[C@H](C)NC(=O)[C@@H]1C[C@@H](O)CN1C(=O)[C@H](CC(N)=O)NC(=O)CN(CCc1ccc2ccccc2c1)C(=O)[C@@H](N)CCCNC(=N)N)c1ccccc1)C(=O)N[C@@H](CC(C)C)C(=O)N[C@H](C(=O)N[C@@H](Cc1cccc(Br)c1)C(N)=O)[C@@H](C)O [Peptide 13] (H-R[X1]N[Hyp]A[Phg]GILT[Phe(3-Br)]-NH2) | < 0.1 nM | 1 to 10 nM |  | 
3 | CCCCCC[C@H](NC(=O)[C@@H](NC(=O)[C@H](CC(C)C)N(C)C(=O)[C@@H](NC(=O)CNC(=O)[C@@H](NC(=O)[C@H](C)NC(=O)[C@@H]1C[C@@H](O)CN1C(=O)[C@H](CC(N)=O)NC(=O)CN(CCc1ccccc1)C(=O)[C@H](CCCNC(=N)N)NC(=O)CCOCCOCCOCCOCCOCCOCCN)c1ccccc1)[C@@H](C)CC)[C@@H](C)O)C(N)=O [Peptide 29] (H-[PEG6]R[Gly(NCH2CH2Ph)]N[Hyp]A[Phg]GI[NMeL]T[Aoc(2)]-NH2) | < 0.1 nM | > 10 nM |  | 
4 | CCCCCC[C@H](NC(=O)[C@@H](NC(=O)[C@H](CC(C)C)NC(=O)[C@@H](NC(=O)CNC(=O)[C@@H](NC(=O)[C@H](C)NC(=O)[C@@H]1C[C@@H](O)CN1C(=O)[C@H](CC(N)=O)NC(=O)CN(CCc1ccccc1)C(=O)[C@H](CCCNC(=N)N)NC(=O)CCOCCOCCOCCOCCOCCOCCOCCOCCN)c1ccccc1)[C@@H](C)CC)[C@@H](C)O)C(N)=O [Peptide 8] (H-[PEG8]R[Gly(NCH2CH2Ph)]N[Hyp]A[Phg]GILT[Aoc(2)]-NH2) | < 0.1 nM | > 10 nM |  | 
5 | CCCCCC[C@H](NC(=O)[C@@H](NC(=O)[C@H](CC(C)C)NC(=O)[C@@H](NC(=O)CNC(=O)[C@@H](NC(=O)[C@H](C)NC(=O)[C@H](Cc1c[nH]cn1)NC(=O)[C@H](CC(N)=O)NC(=O)CN(CCc1ccc2ccccc2c1)C(=O)[C@@H](N)CCCCNC(=NCC)NCC)c1ccccc1)[C@@H](C)CC)[C@@H](C)O)C(N)=O [Peptide 11] (H-[hArg(Et2)][X1]NHA[Phg]GILT[Aoc(2)]-NH2; N-terminus assumed) | < 0.1 nM | 1 to 10 nM |  | 
6 | CCCCCC[C@H](NC(=O)[C@@H](NC(=O)[C@H](CC(C)C)NC(=O)[C@@H](NC(=O)CNC(=O)[C@@H](NC(=O)[C@H](C)NC(=O)[C@H](Cc1c[nH]cn1)NC(=O)[C@H](CC(N)=O)NC(=O)CN(CCc1ccccc1)C(=O)[C@@H](N)CCCCN/C(=N/CC)NCC)c1cccc(O)c1)[C@@H](C)CC)[C@@H](C)O)C(N)=O [Peptide 17] (H-[hArg(Et2)][Gly(NCH2CH2Ph)]NHA[X2]GILT[Aoc(2)]-NH2) | < 0.1 nM | > 10 nM |  | 
7 | CCCC[C@H](NC(=O)[C@@H](NC(=O)[C@H](CC(C)C)NC(=O)[C@@H](NC(=O)CNC(=O)[C@@H](NC(=O)[C@H](C)NC(=O)[C@H](Cc1c[nH]cn1)NC(=O)[C@H](CC(N)=O)NC(=O)CN(CCc1ccccc1)C(=O)[C@H](CCCNC(=N)N)NC(=O)CCOCCOCCOCCOCCOCCOCCN)c1ccccc1)[C@@H](C)CC)[C@@H](C)O)C(N)=O [Peptide 21] (H-[PEG6]R[Gly(NCH2CH2Ph)]NHA[Phg]GILT[Nle]-NH2) | < 0.1 nM | > 10 nM |  | 
8 | CCCCCC[C@H](NC(=O)[C@@H](NC(=O)[C@H](CC(C)C)NC(=O)[C@@H](NC(=O)CNC(=O)[C@@H](NC(=O)[C@H](C)NC(=O)[C@H](Cc1c[nH]cn1)NC(=O)[C@H](CC(N)=O)NC(=O)CN(CCc1ccccc1)C(=O)[C@H](CCCCNC(=NCC)NCC)NC(=O)C(C)(C)C(=O)NCCc1cnc[nH]1)c1ccc(O)cc1)[C@@H](C)CC)[C@@H](C)O)C(N)=O [Peptide 25] ({Malonyl(2,2-Me2,histaminyl)}-[hArg(Et2)][Gly(NCH2CH2Ph)]NHA[Hpg]GILT[Aoc(2)]-NH2) |  |  | < 0.1 nM | > 10 nM
9 | CCCCCC[C@H](NC(=O)[C@@H](NC(=O)[C@H](CC(C)C)NC(=O)[C@@H](NC(=O)CNC(=O)[C@@H](NC(=O)[C@H](C)NC(=O)[C@@H]1C[C@@H](O)CN1C(=O)[C@H](CC(N)=O)NC(=O)CN(CCc1ccccc1)C(=O)[C@H](CCCNC(=N)N)NC(=O)CCOCCOCCOCCOCCOCCOCCN(C)C)c1ccccc1)[C@@H](C)CC)[C@@H](C)O)C(N)=O [Peptide 2] (X4-R[Gly(NCH2CH2Ph)]N[Hyp]A[Phg]GILT[Aoc(2)]-NH2) | < 0.1 nM | 1 to 10 nM |  | 
10 | CCCCCC[C@H](NC(=O)[C@@H](NC(=O)[C@H](CC(C)C)NC(=O)[C@@H](NC(=O)CNC(=O)[C@@H](NC(=O)[C@H](C)NC(=O)[C@@H]1C[C@@H](O)CN1C(=O)[C@H](CC(N)=O)NC(=O)CN(CCc1ccccc1)C(=O)[C@H](CCCNC(=N)N)NC(=O)CCOCCOCCOCCOCCN)c1ccccc1)[C@@H](C)CC)[C@@H](C)O)C(N)=O [Peptide 5] (H-[PEG4]R[Gly(NCH2CH2Ph)]N[Hyp]A[Phg]GILT[Aoc(2)]-NH2) | < 0.1 nM | > 10 nM |  | 
11 | CCCCC[C@H](NC(=O)[C@@H](NC(=O)[C@H](CC(C)C)NC(=O)[C@@H](NC(=O)CNC(=O)[C@@H](NC(=O)[C@H](C)NC(=O)[C@@H]1C[C@@H](O)CN1C(=O)[C@H](CC(N)=O)N(C)C(=O)CN(CCc1ccccc1)C(=O)[C@H](CCCNC(=N)N)NC(=O)CCOCCOCCOCCOCCOCCOCCN)c1ccccc1)[C@@H](C)CC)[C@@H](C)O)C(N)=O [Peptide 30] (H-[PEG6]R[Gly(NCH2CH2Ph)][NMeN][Hyp]A[Phg]GILT[Ahp(2)]-NH2) | < 0.1 nM | > 10 nM |  | 
12 | CCCCCC[C@H](NC(=O)[C@@H](NC[C@H](CC(C)C)NC(=O)[C@@H](NC(=O)CNC(=O)[C@@H](NC(=O)[C@H](C)NC(=O)[C@@H]1C[C@@H](O)CN1C(=O)[C@H](CC(N)=O)NC(=O)CN(CCc1ccccc1)C(=O)CCOCCOCCOCCOCCOCCOCCN)c1ccccc1)[C@@H](C)CC)[C@@H](C)O)C(N)=O [Peptide 1] (H-[PEG6][Gly(NCH2CH2Ph)]N[Hyp]A[Phg]GI-X8) | < 0.1 nM | > 10 nM |  | 
